Experimental data: patent publication EP4772514A1, “MACROCYCLIC COMPOUNDS, PREPARATION METHOD THEREFOR, AND USE THEREOF” (Genfleet Therapeutics (Shanghai) Inc., priority 2023, dated 2025)
Read-outs that look alike come from different tables or passages of the source.

What was measured:
Type in all cases: cell-based
p-ERK [1] = assay: Cell p-ERK assay (HTRF, Advance ERK phospho-T202/Y204 kit) in NCI-H441 cells; conditions: NCI-H441, human non-small cell lung cancer cell strain, KRAS G12V mutation, 3 h compound incubation
Procedure, shortened: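 AsPC-1 (KRAS G12D) or NCI-H441 (KRAS G12V) cells seeded overnight, then treated 3 h at 37 °C with compound (0.1% DMSO) in RPMI-1640/10% FBS. Lysates assayed for ERK phospho-T202/Y204 by HTRF; inhibition vs DMSO and blank wells, IC50 from four-parameter fit.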

p-ERK [2] = assay: Cell p-ERK assay (HTRF, Advance ERK phospho-T202/Y204 kit) in AsPC-1 cells; conditions: ASPC1; AsPC-1, human pancreatic cancer cell strain, KRAS G12D mutation; 3 h compound incubation
Protocol: AsPC-1 cells were purchased from ATCC, Cat. No. CRL-1682; NCI-H441 cells were purchased from ATCC, Cat. No. HTB-174; RPMI-1640 medium was purchased from Gibco, Cat. No. 11875-093; FBS was purchased from Gibco, Cat. No. 10099-141C; penicillin/streptomycin double-antibiotic solution (PS) was purchased from Gibco, Cat. No. 15140-122; trypsin (containing EDTA) was purchased from Gibco, Cat. No. 25200-072; DMSO was purchased from VWRAMRESCO, Cat. No. 0231-500ML; 96-well cell culture plates were purchased from Corning, Cat. No. 3599; white-bottomed, opaque 96-well plates were purchased from Cisbio, Cat. No. 66PL96025; Advance ERK phospho-T202/Y204 kit was purchased from Cisbio, Cat. No. 64AERPEH; cell counter was purchased from CHEMOMETEC, model: NC-200; microplate reader was purchased from PerkinElmer, model: EnVision.
AsPC-1, a human pancreatic cancer cell strain endogenously containing a KRAS^G12D mutation, was cultured in a complete medium containing RPMI-1640 + 10% FBS + 1% PS. NCI-H441, a human non-small cell lung cancer cell strain endogenously containing a KRAS^G12V mutation, was cultured in a complete medium containing RPMI-1640 + 10% FBS + 1% PS.
The cells were digested with trypsin (containing EDTA), collected in their corresponding complete media, and counted. The density of the cell suspensions was adjusted with their corresponding complete media, and AsPC-1 cells (10000 cells/well) or NCI-H441 cells (20000 cells/well) were seeded into a 96-well cell culture plate, with the volume of the medium in each well being 80 µL. The cell culture plate was incubated in an incubator at 37 °C with 5% CO2 overnight. A series of 3.16-fold gradient dilutions of a 1000× compound stock solution were prepared with DMSO, and then diluted 200-fold with the complete medium described above to give 5× compound stock solutions. On the day after cell seeding, 20 µL of the 5× compound stock solution was added to each cell culture well. As a result, the final concentration of the compound in the cell culture well became 1×, and the DMSO content in the well was 0.1%. In addition to the compound-treated wells described above, cell-containing DMSO control wells were also set. A complete medium containing 0.5% DMSO was added at 20 µL/well. After the mixture was well mixed, the culture plate was incubated in the incubator at 37 °C with 5% CO2 for another 3 h. The medium was then removed from the culture wells, and 50 µL of cell lysis buffer (from Advance ERK phospho-T202/Y204 kit) was added to each well. The mixture was well mixed, incubated for 30 min, and then transferred to a white-bottomed, opaque 96-well assay plate at 16 µL/well, and separately, 16 µL of cell lysis buffer was added to additional wells (serving as blank wells) in the assay plate. After the transfer was completed, 4 µL of p-ERK HTRF antibody mixture (from Advance ERK phospho-T202/Y204 kit) was added to each well of the assay plate, followed by a 4-hour incubation. The HTRF signal values (RLU) were then measured using a microplate reader, and the inhibition rate of the compound against p-ERK levels was calculated as follows: IR(%) = (RLUDMSO - RLUcompound)/(RLUDMSO - RLUblank) × 100%, where RLUDMSO is the average HTRF signal value from the DMSO control well samples, RLU is the average HTRF signal value from the blank well samples, and RLUcompound is the HTRF signal value from the compound-treated well samples. Using an XLfit software, the IR(%) values were plotted against the logarithm of the compound concentrations, and the dose-response curves were fitted using the four-parameter method to calculate the IC50 values.

NCI-H441 cells = assay: 3D cell proliferation assay (CellTiter Glo-3D) in NCI-H441 cells; conditions: NCI-H441, human lung cancer cell strain, KRAS G12V mutation, 3D culture, 2% FBS, 5 days, read-out: H441 AP IC50
Excerpt: MIA PaCa-2 cells were purchased from ATCC, Cat. No. CRL-1420; AsPC-1 cells were purchased from ATCC, Cat. No. CRL-1682; NCI-H441 cells were purchased from ATCC, Cat. No. HTB-174; NCI-H1975 cells were purchased from ATCC, Cat. No. CRL-5908; DMEM medium was purchased from Gibco, Cat. No. 11995-065; RPMI-1640 medium was purchased from Gibco, Cat. No. 11875-093; FBS was purchased from Gibco, Cat. No. 10099-141C; penicillin/streptomycin double-antibiotic solution (PS) was purchased from Gibco, Cat. No. 15140-122; Horse serum was purchased from Gibco, Cat. No. 16050130; trypsin (containing EDTA) was purchased from Gibco, Cat. No. 25200-072; DMSO was purchased from VWRAMRESCO, Cat. No. 0231-500ML; 384-well cell culture plates were purchased from Corning, Cat. No. 3830; white-bottomed, opaque 384-well assay plates were purchased from Corning, Cat. No. 3570; CellTiter Glo-3D kit was purchased from Promega, Cat. No. G9683; cell counter was purchased from CHEMOMETEC, model: NC-200; microplate reader was purchased from PerkinElmer, model: EnVision.
MIA PaCa-2, a human pancreatic cancer cell strain endogenously containing a KRAS^G12Cmutation, was cultured in a complete medium containing DMEM + 10% FBS + 2.5% Horse serum + 1% PS. AsPC-1, a human pancreatic cancer cell strain endogenously containing a KRAS^G12D mutation, was cultured in a complete medium containing RPMI-1640 + 10% FBS + 1% PS. NCI-H441 cells, a human lung cancer cell strain endogenously containing a KRAS^G12V mutation, were cultured in a complete medium containing RPMI-1640 + 10% FBS + 1% PS. NCI-H1975, a KRAS wild-type human lung cancer cell strain whose cell proliferation […], was cultured in a complete medium containing RPMI-1640 + 10% FBS + 1% PS.
The cells were digested with trypsin (containing EDTA), collected in their respective low-serum complete media containing 2% FBS (for MIA Paca-2 cell culture: DMEM + 2% FBS + 0.5% Horse serum + 1% PS), and counted. After the cell density was adjusted as required, MIA PaCa-2 cells (200 cells/well), AsPC-1 cells (800 cells/well), NCI-H441 cells (800 cells/well), or NCI-H1975 cells (400 cells/well) were seeded into a 384-well cell culture plate, with the volume of the medium in each well being 45 µL. The cell culture plate was incubated in an incubator at 37 °C with 5% CO2 overnight. A series of 3.16-fold gradient dilutions of a 1000× compound stock solution were prepared with DMSO, and then diluted 100-fold with the complete medium containing 2% FBS described above to give 10× compound stock solutions. On the day after cell seeding, 5 µL of the 10× compound stock solution was added to each cell culture well. As a result, the final concentration of the compound in the cell culture well became 1×, and the DMSO content in the well was 0.1%. In addition to the compound-treated wells described above, cell-containing DMSO control wells (with 5 µL of the complete medium containing 1% DMSO added to each well) and cell-free medium control wells (containing 50 µL of the complete medium with 2% FBS) were also set. The culture plate was incubated in an incubator at 37 °C with 5% CO2 for another 5 days, and then 30 µL of CellTiter-Glo working solution was added to each well. The mixture was well mixed, incubated for 30 min, left to stand at room temperature for 30 min, and then transferred to a white-bottomed, opaque 384-well assay plate at 40 µL/well. The chemiluminescence values (RLU) were measured using a microplate reader, and the cell proliferation inhibition rate for each well was calculated: IR(%) = (RLUDMSO - RLUcompound)/(RLUDMSO - RLUblank) × 100%, where RLUDMSO is the average RLU signal value from the DMSO control well samples, RLUblank is the average RLU signal value from the medium control well samples, and RLUcompound is the RLU signal value from the compound-treated well samples. […]

| IC50 (p-ERK [1]; Homo sapiens, NCI-H441, 3 h) | IC50 (p-ERK [2]) | IC50 (NCI-H441 cells; Homo sapiens, NCI-H441, 120 h) | SMILES | IC50 (p-ERK [1]) | IC50 (NCI-H441 cells; 120 h) |
| --- | --- | --- | --- | --- | --- |
| 0.36 nM | 0.07 nM | – | CCn1cc2c(c1-c1cc(C#CCN3CCC(C#N)(CN)CC3)cnc1[C@H](C)OC)CC(C)(C)COC(=O)[C@@H]1CCCN(N1)C(=O)[C@@H](NC(=O)[C@H]1[C@H](C)[C@@H]1C)Cc1nc(co1)/C=C/2 (atropisomer, axis not shown; (Ra)) [Compound Z234, (1r,2R,3S)-N-((4^2Z,8^3 S,2E,6S)-(Ra)-1^5-(5-(3-(4-(aminomethyl)-4-cyanopiperidin-1-yl)prop-1-yn-1-yl)-2-((S)-1-methoxyethyl)pyridin-3-yl)-1^1-ethyl-12,12-dimethyl-7,9-dioxo-8^1,8^2,8^3,8^4,8^5,8^6-hexahydro-1^1H-10-oxa-4(4,2)-oxazola-8(1,3)-pyridazina-1(3,4)-pyrrolacyclotridecaphan-2-en-6-yl)-2,3-dimethylcyclopropane-1-carboxamide] | – | – |
| 157 nM | 367 nM | – | CCn1nc2c(c1-c1cc(N3CCN(C)CC3)cnc1[C@H](C)OC)CC(C)(C)COC(=O)[C@@H]1CCCN(N1)C(=O)[C@@H](NC(=O)[C@H]1[C@H](C)[C@@H]1C)Cc1nc(cs1)/C=C/2 (atropisomer, axis not shown) [Compound Z4] | – | – |
| – | – | – | CCn1nc2c(c1-c1cc(C#CCN3CCS(=O)(=O)CC3)cnc1[C@H](C)OC)CC(C)(C)COC(=O)[C@@H]1CCCN(N1)C(=O)[C@@H](NC(=O)[C@@H]1CCCN1Cc1ccccc1)Cc1nc(cs1)/C=C/2 (atropisomer, axis not shown; (Ra)) [Compound Z48, (2S)-1-benzyl-N-((4^2Z,8^3S,2E,6S)-(Ra)-1^5-(5-(3-(1,1-dioxothiomorpholine)-1-prop-1-yn-1-yl)-2-((S)-1-methoxyethyl)pyridin-3-yl)-1^1-ethyl-12,12-dimethyl-7,9-dioxo-8^1,8^2,8^3,8^4,8^5,8^6-hexahydro-1^1H-10-oxa-4(4,2)-thiazola-8(1,3)-pyridazina-1(3,4)-pyrrolacyclotridecaphan-2-en-6-yl)pyrrolidine-2-carboxamide] | 78.6 nM | 123 nM |
| 182 nM | – | 115 nM | CCn1nc2c(c1-c1cc(C#CCN3CCS(=O)(=O)CC3)cnc1[C@H](C)OC)CC(C)(C)COC(=O)[C@@H]1CCCN(N1)C(=O)[C@@H](NC(=O)[C@@H](NC(=O)OC(C)(C)C)C(C)C)Cc1nc(cs1)/C=C/2 (atropisomer, axis not shown; (Ra)) [Compound Z53] | – | – |
| 88 nM | – | 245 nM | CCn1nc2c(c1-c1cc(C#CCN3CCS(=O)(=O)CC3)cnc1[C@H](C)OC)CC(C)(C)COC(=O)[C@@H]1CCCN(N1)C(=O)[C@@H](NC(=O)[C@H](C(C)C)N(C)C(=O)COc1ccccc1)Cc1nc(cs1)/C=C/2 (atropisomer, axis not shown; (Ra)) [Compound Z57, (2S)-N-((4^2Z,8^3S,2E,6S)-(Ra)-1^5-(5-(3-(1,1-dioxidothiomorpholino)prop-1-yn-1-yl)-2-((S)-1-methoxyethyl)pyridin-3-yl)-1^1-ethyl-12,12-dimethyl-7,9-dioxo-8^1,8^2,8^1,8^4,8^1,8^6-hexahydro-1^1H-10-oxa-4(4,2)-thiazola-8(1,3)-pyridazina-1(3,4)-pyrazolocyclotridec-2-en-6-yl)-3-methyl-2-(N-methyl-2-phenoxyacetamido)butanamide] | – | – |
| 239 nM | – | 374 nM | CCn1c(-c2cc(N3CCN(C)CC3)cnc2[C@H](C)OC)c2c3cc(ccc31)NC(=O)OC[C@H](NC(=O)[C@H]1[C@H](C)[C@@H]1C)C(=O)N1CCC[C@H](N1)C(=O)OCC(C)(C)C2 (single isomer, unassigned) [Compound Z2-1] | – | – |
